Structures are written as SMILES. Where two headings read alike, the source gives them in different places.

Holding throughout (type): biochemical
For assay [1], the target named is T1, 320 wild-type protein kinases (Homo sapiens, UniProt P33981).
T1 sequence (P33981 1-857): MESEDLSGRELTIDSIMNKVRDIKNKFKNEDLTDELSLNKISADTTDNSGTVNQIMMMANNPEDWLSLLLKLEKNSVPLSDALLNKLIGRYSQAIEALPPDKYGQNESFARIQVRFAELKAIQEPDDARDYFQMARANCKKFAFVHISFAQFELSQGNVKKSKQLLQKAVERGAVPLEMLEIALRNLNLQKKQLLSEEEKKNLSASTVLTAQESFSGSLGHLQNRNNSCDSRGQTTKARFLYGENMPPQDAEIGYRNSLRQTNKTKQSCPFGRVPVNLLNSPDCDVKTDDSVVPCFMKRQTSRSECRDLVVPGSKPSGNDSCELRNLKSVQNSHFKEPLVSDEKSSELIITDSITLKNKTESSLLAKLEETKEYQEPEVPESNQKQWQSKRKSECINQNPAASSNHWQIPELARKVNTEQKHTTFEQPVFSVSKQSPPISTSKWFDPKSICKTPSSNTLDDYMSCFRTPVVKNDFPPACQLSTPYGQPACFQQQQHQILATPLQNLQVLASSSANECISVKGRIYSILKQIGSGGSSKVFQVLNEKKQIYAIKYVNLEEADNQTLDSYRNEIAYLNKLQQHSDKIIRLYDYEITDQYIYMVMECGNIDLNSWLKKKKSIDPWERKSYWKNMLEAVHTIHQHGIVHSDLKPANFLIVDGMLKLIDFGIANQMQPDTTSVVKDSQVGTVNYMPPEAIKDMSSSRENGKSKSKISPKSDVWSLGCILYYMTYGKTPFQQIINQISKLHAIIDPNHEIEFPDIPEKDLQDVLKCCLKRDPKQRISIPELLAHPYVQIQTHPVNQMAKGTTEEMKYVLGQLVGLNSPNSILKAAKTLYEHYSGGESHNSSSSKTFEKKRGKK
To be noted: kinase TTK, singlicate. The source says: (§1) Table S4. Profiling of two compounds at two concentrations against 320 wild-type protein kinases; singlicate measurement; Residual activities (% of control).

The target in assay [2] is T2, 320 wild-type protein kinases (Homo sapiens, UniProt P52333).
T2 sequence (P52333 1-1124): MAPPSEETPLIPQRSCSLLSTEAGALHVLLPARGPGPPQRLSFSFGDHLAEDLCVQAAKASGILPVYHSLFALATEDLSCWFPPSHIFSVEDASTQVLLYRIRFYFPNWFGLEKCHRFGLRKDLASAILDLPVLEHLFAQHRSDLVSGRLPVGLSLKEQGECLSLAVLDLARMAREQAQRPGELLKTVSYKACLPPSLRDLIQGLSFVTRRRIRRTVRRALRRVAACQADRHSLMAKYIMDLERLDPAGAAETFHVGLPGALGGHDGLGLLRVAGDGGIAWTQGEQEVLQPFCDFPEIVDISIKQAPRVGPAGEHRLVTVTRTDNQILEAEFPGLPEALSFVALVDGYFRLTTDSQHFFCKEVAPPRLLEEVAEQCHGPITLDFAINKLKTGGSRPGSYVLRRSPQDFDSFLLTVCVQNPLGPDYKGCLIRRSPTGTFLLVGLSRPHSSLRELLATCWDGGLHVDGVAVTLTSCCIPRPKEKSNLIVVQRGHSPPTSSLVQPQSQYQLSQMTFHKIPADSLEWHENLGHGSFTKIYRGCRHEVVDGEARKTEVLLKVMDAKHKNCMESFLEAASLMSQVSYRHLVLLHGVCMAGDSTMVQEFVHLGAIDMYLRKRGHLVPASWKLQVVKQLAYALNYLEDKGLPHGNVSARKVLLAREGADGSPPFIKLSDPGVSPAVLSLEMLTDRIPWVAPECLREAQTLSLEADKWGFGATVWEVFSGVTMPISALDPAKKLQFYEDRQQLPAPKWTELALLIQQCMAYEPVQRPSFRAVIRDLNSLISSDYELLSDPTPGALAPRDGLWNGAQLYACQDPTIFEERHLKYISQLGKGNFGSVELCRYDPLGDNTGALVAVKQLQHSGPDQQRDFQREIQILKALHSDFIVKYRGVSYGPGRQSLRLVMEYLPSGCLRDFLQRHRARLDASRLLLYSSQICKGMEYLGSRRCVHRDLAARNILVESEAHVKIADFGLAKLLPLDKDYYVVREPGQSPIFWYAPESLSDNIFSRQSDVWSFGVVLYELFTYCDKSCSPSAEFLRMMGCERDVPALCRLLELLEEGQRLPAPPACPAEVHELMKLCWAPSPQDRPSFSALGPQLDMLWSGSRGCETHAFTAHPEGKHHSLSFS
To be noted: singlicate.
Description: as §1

In assay [3] the target is 320 wild-type protein kinases (Homo sapiens, UniProt Q9H4B4). To be noted: singlicate.
Sequence of 320 wild-type protein kinases (Homo sapiens, UniProt Q9H4B4) (Q9H4B4 whole entry): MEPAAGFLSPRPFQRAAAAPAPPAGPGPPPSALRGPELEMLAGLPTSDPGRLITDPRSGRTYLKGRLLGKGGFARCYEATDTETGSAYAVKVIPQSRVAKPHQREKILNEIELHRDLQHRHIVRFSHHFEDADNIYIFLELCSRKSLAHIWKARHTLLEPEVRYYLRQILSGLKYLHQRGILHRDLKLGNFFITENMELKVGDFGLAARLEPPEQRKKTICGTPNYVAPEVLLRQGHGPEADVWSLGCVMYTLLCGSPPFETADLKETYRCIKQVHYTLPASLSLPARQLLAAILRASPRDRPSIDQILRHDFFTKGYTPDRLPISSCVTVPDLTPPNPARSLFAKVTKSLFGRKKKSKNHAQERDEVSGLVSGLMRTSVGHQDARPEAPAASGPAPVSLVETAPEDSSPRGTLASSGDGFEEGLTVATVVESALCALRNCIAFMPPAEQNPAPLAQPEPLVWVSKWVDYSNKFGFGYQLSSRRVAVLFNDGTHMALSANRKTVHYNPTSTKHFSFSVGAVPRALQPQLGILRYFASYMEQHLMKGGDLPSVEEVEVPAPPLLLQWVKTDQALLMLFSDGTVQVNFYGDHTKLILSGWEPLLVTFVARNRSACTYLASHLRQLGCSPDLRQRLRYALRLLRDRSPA
Description: as §1

Assay [4] concerns the target T3, 320 wild-type protein kinases (Homo sapiens, UniProt Q9UHD2).
T3 sequence (Q9UHD2 1-729): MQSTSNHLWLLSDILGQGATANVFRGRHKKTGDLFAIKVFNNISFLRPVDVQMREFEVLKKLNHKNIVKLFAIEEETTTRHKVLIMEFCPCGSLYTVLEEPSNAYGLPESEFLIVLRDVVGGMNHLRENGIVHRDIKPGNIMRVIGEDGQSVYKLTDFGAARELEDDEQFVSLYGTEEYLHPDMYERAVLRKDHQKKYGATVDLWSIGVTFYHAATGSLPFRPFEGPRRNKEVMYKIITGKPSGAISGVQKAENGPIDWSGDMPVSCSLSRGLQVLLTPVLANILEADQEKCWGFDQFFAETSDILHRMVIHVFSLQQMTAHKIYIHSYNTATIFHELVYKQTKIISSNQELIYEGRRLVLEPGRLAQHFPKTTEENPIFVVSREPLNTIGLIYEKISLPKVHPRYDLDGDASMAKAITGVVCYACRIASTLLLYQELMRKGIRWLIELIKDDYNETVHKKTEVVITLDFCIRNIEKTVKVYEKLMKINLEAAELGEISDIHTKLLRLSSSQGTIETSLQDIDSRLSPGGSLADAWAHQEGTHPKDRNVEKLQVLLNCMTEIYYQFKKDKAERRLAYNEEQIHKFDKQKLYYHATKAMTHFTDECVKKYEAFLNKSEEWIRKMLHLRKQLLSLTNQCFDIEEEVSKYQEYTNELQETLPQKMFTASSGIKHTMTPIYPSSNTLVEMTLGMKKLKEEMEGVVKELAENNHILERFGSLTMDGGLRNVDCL
To be noted: kinase TBK1, singlicate.
Description: as §1

`C#Cc1cc(Nc2ncnc3cc(I)ccc23)ccc1Cl` [Compound 41]: the entries for the “Residual activity, TTK” value in assay [1] (assay conc. 1.0E-06 M) and in assay [1] (assay conc. 1.0E-07 M) were 81 % of control and 100 % of control, respectively. In addition, the Residual activity is reported as 78 % of control in assay [2] (JAK3, 1.0E-06 M); 108 % of control in assay [2] (JAK3, 1.0E-07 M); 102 % of control in assay [3] (PLK3, 1.0E-06 M); 109 % of control in assay [3] (PLK3, 1.0E-07 M). For the same molecule, the results for the “Residual activity, TBK1” value in assay [4] (assay conc. 1.0E-06 M) and in assay [4] (assay conc. 1.0E-07 M) were 98 % of control and 106 % of control, respectively.
As to `C#Cc1cc(Nc2ncnc3cc(OC)c(OC)cc23)ccc1Cl` [Compound 45], the “Residual activity, TTK” value in assay [1] (assay conc. 1.0E-06 M) is 83 % of control; in assay [1] (assay conc. 1.0E-07 M) it was 97 % of control. The Residual activity is on record as 85 % of control in assay [2] (JAK3, 1.0E-06 M); 112 % of control in assay [2] (JAK3, 1.0E-07 M); 98 % of control in assay [3] (PLK3, 1.0E-06 M); 103 % of control in assay [3] (PLK3, 1.0E-07 M). The “Residual activity, TBK1” value in assay [4] (assay conc. 1.0E-06 M) is recorded as 89 % of control; in assay [4] (assay conc. 1.0E-07 M), 106 % of control.
